Results published in patent US8563472B2 (priority 2010, dated 2013).

Assays:
Phytophthora infestans = format: in vivo; conditions: hydrazone 50 ppm with 50 μM CuCl2.2H2O, applied 24 h before inoculation, tomato plants, assessed 7 d after inoculation
[1] = system: Leptosphaeria nodorum (LEPTNO); assay: In vitro fungitoxicity assay against Leptosphaeria nodorum in copper-minus / copper-plus liquid medium; format: cell-based; conditions: test compound 0.05 μg/mL, 25° C., 72 h; for inhibition of growth at 0.05 µg/mL: Parastagonospora nodorum, copper-minus medium, growth by light scattering, read-out: LEPTNO % Inhn. Minus Copper Observed; for LEPTNO % Inhn. Plus Copper Observed: copper-plus medium (CuCl2.2H2O)
Description: In vitro fungitoxicity assays against Leptosphaeria nodorum (LEPTNO) were conducted using the liquid growth medium described by Coursen and Sisler (American Journal of Botany 1960, 47, 541-549) except that copper micronutrient, normally included as CuSO4, was omitted. The medium, termed “copper-minus”, was prepared by dissolving 10 g glucose, 1.5 g K2HPO4, 2 g KH2PO4 and 1 g (NH4)2SO4 in 1 liter of deionized water and treating the solution with 0.5 g Chelex 100 resin (Bio-Rad Analytical grade, 50-100 mesh, sodium form, cat#142-2822) by stirring at room temperature for 1 h. MgSO4.7H2O (0.5 g) was added, and stirring was continued for a further hour. Trace elements (minus CuSO4), and vitamins described by Coursen and Sisler were added from concentrated stock solutions and the entire medium was sterilized by filtration. Medium containing copper was prepared by adding CuCl2.2H2O to the copper-minus medium at 20 μM. […] Copper-minus medium (100 μL) was added to one of the wells and copper-plus medium to the second well. Control wells, included for each medium, received 1 μL DMSO and 100 μL of medium.
LEPTNO was grown on potato dextrose agar in 9 cm diameter petri dishes for 7 days (d). Sterile deionized water (20 mL) was added to a culture plate and spores suspended by scraping the surface gently with a sterile plastic loop. The resulting suspension was filtered through a double layer of sterile cheesecloth. […] The spores were resuspended in copper-minus medium, and the suspension adjusted to 2×10^5 spores per mL. Microtiter plates were inoculated with 100 μL of this spore suspension and the plates incubated at 25° C. for 72 h before assessing fungal growth by measuring light scattering in a NepheloStar plate reader. Growth inhibition was determined by comparing growth in the presence of test compound with growth in control wells lacking test compound.

SMILES	TLB % control (Phytophthora infestans) [%]	inhibition of growth at 0.05 µg/mL [1] [%]	LEPTNO % Inhn. Plus Copper Observed [1] [%]	melting point [°C]
C/C(=N\NC(=O)c1ccc(Cl)s1)c1cc(Cl)cc(Cl)c1O [Compound 44]	68	2	96.9	221 to 224
O=C(N/N=C/c1ccccc1O)c1cc2ccccc2s1 [Compound 20]	18	4.2	95.4	220 to 221
C/C(=N\NC(=O)c1ccoc1C)c1cc(Cl)cc(Cl)c1O [Compound 46]	69	0	97.2	212 to 215
C/C(=N\NC(=O)c1cn(-c2ccccc2)nc1O)c1ccccc1O [Compound 36]	66	9.2	92.5	276 to 277
C/C(=N\NC(=O)c1csc(C)c1)c1cc(Br)cc(Br)c1O [Compound 51]	88	2.2	98	237 to 239
Cc1cc(C(=O)N/N=C/c2cc(Cl)cc(Cl)c2O)c2cc(Br)ccc2n1 [Compound 1]	7	2.5	73.8	265 to 267
O=C(N/N=C/c1cc(Cl)cc(Cl)c1O)c1sc(C(F)(F)F)nc1C(F)(F)F [Compound 12]	57	49.8	94.7	189 to 190
Cc1cc(C(=O)N/N=C/c2cc(Cl)cc(Cl)c2O)cs1 [Compound 27]	78	5.4	97.3	189 to 191
C/C(=N\NC(=O)c1cnn(-c2ccc(Cl)cc2)c1C(F)(F)F)c1cc(Br)cc(Br)c1O [Compound 48]	19	4.3	56	121 to 125
O=C(N/N=C/c1ccccc1)c1cnn(-c2ccc(Cl)cc2)c1C(F)(F)F [Compound 18]	7	0	92.5	205 to 207
C/C(=N\NC(=O)c1sc(C)nc1C)c1cc(Cl)cc(Cl)c1O [Compound 43]	66	0	94.3	208 to 209
C/C(=N\NC(=O)c1sc(C)nc1C)c1cc(Br)cc(Br)c1O [Compound 49]	61	2.6	89.1	221 to 223
C/C(=N\NC(=O)c1csc(C)c1)c1ccccc1O [Compound 39]	66	0	97.3	158 to 160
C/C(=N\NC(=O)c1csc(C)c1)c1cc(Cl)cc(Cl)c1O [Compound 45]	83	3.7	98.3	218 to 220
Cc1nc(C)c(C(=O)N/N=C/c2cc(Cl)cc(Cl)c2O)s1 [Compound 25]	71	0	81.9	217 to 219
O=C(N/N=C/c1cc(Br)cc(Br)c1O)c1ccsc1 [Compound 34]	80	0	97.9	236 to 237
Cc1nc(C)c(C(=O)N/N=C/c2cc(Br)cc(Br)c2O)s1 [Compound 30]	49	1	71.2	225 to 226

SMILES	TLB % control (Phytophthora infestans) [%]	inhibition of growth at 0.05 µg/mL [1] [%]	LEPTNO % Inhn. Plus Copper Observed [1] [%]	melting point [°C]
C/C(=N\NC(=O)c1ccsc1)c1ccccc1O [Compound 40]	80	0	96.8	148 to 150
C/C(=N\NC(=O)c1cc(C)nc2ccc(Br)cc12)c1ccccc1O [Compound 2]	36	0	83.4	251 to 254
C/C(=N\NC(=O)c1cnn(-c2ccc(Cl)cc2)c1C(F)(F)F)c1cc(Cl)cc(Cl)c1O [Compound 41]	36	0	71.3	209 to 211
Cc1cc(C(=O)N/N=C/c2cc(Br)cc(Br)c2O)cs1 [Compound 32]	69	0	97.6	203 to 205
O=C(N/N=C/c1ccccc1O)c1ccc(Cl)s1 [Compound 23]	32	0	96.3	228 to 230
O=C(N/N=C/c1cc(Cl)cc(Cl)c1O)c1cnn(-c2ccc(Cl)cc2)c1C(F)(F)F [Compound 17]	69	15.8	92.6	216 to 217
CN1CCCCC1C(=O)N/N=C/c1cc(Cl)cc(Cl)c1O (stereo not shown) [Compound 54, 1-methyl-piperidine-2-carboxylic acid [1-(3,5-dichloro-2-hydroxy-phenyl)-methylidene]-hydrazide]	22	0	91	107 to 110
Cc1c(C(=O)N/N=C/c2ccccc2O)[nH]c2c([N+](=O)[O-])cccc12 [Compound 4]	4	11.3	91.4	296 to 299
C/C(=N\NC(=O)c1cn(-c2ccccc2)nc1O)c1cc(Cl)cc(Cl)c1O [Compound 42]	2	3.5	91.2	269 to 271
C/C(=N\NC(=O)c1ccsc1)c1cc(Cl)cc(Cl)c1O [Compound 47]	81	0	98.1	230 to 232
C/C(=N\NC(=O)c1ccc(Cl)s1)c1ccccc1O [Compound 38]	56	0	98	204 to 205
O=C(N/N=C/c1cc(Br)cc(Br)c1O)c1cnn(-c2ccc(Cl)cc2)c1C(F)(F)F [Compound 29]	47	7.8	57.6	237 to 238
C/C(=N\NC(=O)c1ccc(Cl)s1)c1cc(Br)cc(Br)c1O [Compound 50]	85	0	97.5	253 to 255
Cc1nn(-c2ccccc2)nc1C(=O)N/N=C/c1ccccc1O [Compound 21]	16	0	93.9	231 to 233
Cn1cc(C(=O)N/N=C/c2cc(Cl)cc(Cl)c2O)c2ccccc21 [Compound 15]	12	16.3	98.1	215 to 217
C/C(=N\NC(=O)c1ccoc1C)c1cc(Br)cc(Br)c1O [Compound 52]	66	0	97.7	201 to 204
C/C(=N\NC(=O)c1ccsc1)c1cc(Br)cc(Br)c1O [Compound 53]	73	7.6	97.6	251 to 253
